Experimental data from patent US10178875B2, “Methods of modifying or imparting taste using organic compounds” (Givaudan, S.A., priority 2013, dated 2019).

Legend:
Type in all cases: in vivo
panel of trained tasters = experiment: Taste evaluation in water
Experimental: A one percent cut of each compound of Examples 1-13 was prepared first. The hydrochloride salts were cut directly into water, while the free base examples were cut into ethanol. Next, 100 ml of a 1 ppm, 10 ppm and 20 ppm solution were prepared. The 1 ppm standards were prepared by addition of 0.0126 ml (cut in ethanol) or 0.01 ml (cut in water) to an amber bottle followed by dilution to 100 g total sample weight using water. The 10 and 20 ppm solutions were prepared similarly, but using 0.126 ml ethanol/0.1 ml water or 0.252 ml ethanol/0.2 ml water of the 1% cuts respectively. Next, the samples were evaluated by a panel of trained tasters.

bench-top tasting panel [1] = experiment: Umami evaluation in retorted chicken broth (Example 20); settings: Example 3 4 ppm, Example 13 3 ppm, Example 10 4 ppm, Example 9 3 ppm; for umami strength ranking: MSG 0.20%, 9 panelists
Experimental: (§1) Umami evaluations were done in dry noodle seasoning, chicken broth, retorted chicken broth, cheese sauce and salted potato chip applications. Each application was prepared using MSG, the experimental umami tastant and a blank which contained neither MSG nor the experimental umami tastant. Next, using a bench-top tasting panel (consisting of 7 to 14 panelists), panelists were asked to record the sensory attribute differences between the control (blank), the MSG application and the application containing the experimental umami tastant. These sensory attributes include umami, saltiness, bitterness, off-notes, mouth feel attribute, lingering attribute and flavor profile differences.
The procedure for the preparation of the retorted chicken broth is the same as in example 16. Compounds from Examples 3, 9, 10 and 13 were spiked individually into the chicken broth generating six samples, as described below.

bench-top tasting panel [2] = experiment: Bain marie (hot water bath) test with chicken broth; settings: hot water bath 150° F. for 4 hours, Example 3 3 ppm, Example 13 2 ppm (table), Example 10 3 ppm, Example 9 2 ppm; for umami strength ranking: MSG 0.20%, 7 panelists
Experimental: as §1
Chicken broth was prepared as previously described in example 15. Compounds from Examples 3, 9, 10 and 13 were added to the chicken broth in the concentrations described below and placed in a hot water bath (150° F.) for 4 hours prior to taste evaluation.

bench-top tasting panel [3] = experiment: Umami evaluation on salted potato chips (Example 22); settings: 1% salted potato chips, Example 3 10 ppm, Example 13 10 ppm, Example 10 6 ppm, Example 9 10 ppm; for umami strength ranking: MSG 0.2%, 9 panelists
Experimental: as §1
The potato chips were prepared as previously described in example 19 and spiked with compounds from Examples 3, 9, 10 and 13 as described below.

Compound	aroma (panel of trained tasters; 1 ppm in water)	taste (panel of trained tasters; 1 ppm in water)	aroma (panel of trained tasters; 10 ppm in water)	taste (panel of trained tasters; 10 ppm in water)	aroma (panel of trained tasters; 20 ppm in water)	taste (panel of trained tasters; 20 ppm in water)	flavor profile described by panelists (bench-top tasting panel [1])	umami strength ranking (bench-top tasting panel [1])	flavor profile described by panelists (bench-top tasting panel [2])	umami strength ranking (bench-top tasting panel [2])	flavor profile described by panelists (bench-top tasting panel [3])	umami strength ranking (bench-top tasting panel [3])
Cl.c1ccc(SCCc2ccccn2)cc1 [Example 2, 2-(2-(PHENYLTHIO)ETHYL)PYRIDINE HYDROCHLORIDE]	green	weak umami, very weak astringent	green	moderate umami, very weak: salty, bitter,	green	moderate umami, weak: salty, bitter, astringent						
COC(=O)c1ccc(SCCc2ccccn2)cc1.Cl [Example 3, METHYL 4-((2-(PYRIDIN-2-YL)ETHYL)THIO)BENZOATE HYDROCHLORIDE]		weak to moderate umami, very weak: bitter,	bloody metallic	moderate umami, weak: bitter, metallic,	bloody metallic	moderate to strong umami, weak: bitter,	a sweeter flavor profile with a build up of umami character	MSG>3 ppm example 9>3 ppm Example 13>4 ppm Example 3>Blank retorted chicken broth>4 ppm Example 10	a bitter, limited umami flavor profile	MSG>2 ppm example 9>3 ppm Example 10=4 ppm Example 13>Blank chicken broth>3 ppm Example 3	a slight to moderate level of umami along with strong salty profile	10 ppm Example 3>10 ppm Example 9>MSG>10 ppm Example 13>blank>6 ppm Example 10
Cc1ccc(SCCc2ccccn2)cc1.Cl [Example 4, 2-(2-(P-TOLYLTHIO)ETHYL)PYRIDINE HYDROCHLORIDE]		very weak: umami, bitter, astringent	green	weak: umami, bitter, astringent, very weak	green	Weak: umami, bitter, metallic, sour, astringent						
Cc1ccccc1SCCc1ccccn1.Cl [Example 5, 2-(2-(O-TOLYLTHIO)ETHYL)PYRIDINE HYDROCHLORIDE]	green pepper	weak bitter, astringent, very weak metallic	green pepper	weak umami, very weak bitter	green pepper	weak umami, very weak: bitter, astringent						
Oc1ccc(SCCc2ccccn2)cc1 [Example 6, 4-((2-(PYRIDIN-2-YL)ETHYL)THIO)PHENOL]	green	very weak: umami, astringent	Green, fruity	weak: umami, bitter, astringent, very weak	Green, fruity	weak: umami, bitter, astringent, very weak						
Oc1ccccc1SCCc1ccccn1 [Example 7, 2-((2-(PYRIDIN-2-YL)ETHYL)THIO)PHENOL]	Green pepper	very weak: umami, salty, weak bitter	Green pepper	weak to moderate umami, weak: bitter, metallic,	Green pepper	Weak to moderate umami, weak bitter, very						
COc1cccc(SCCc2ccccn2)c1 [Example 8, 2-(2-((3-METHOXYPHENYL)THIO)ETHYL)PYRIDINE]	Green pepper, beany	very weak metallic, weak astringent	Green pepper	weak: umami, astringent, very weak: bitter,	Green pepper	weak: umami, very weak: bitter, metallic						
COC(=O)c1ccccc1SCCc1ccccn1.Cl [Example 9, METHYL 2-((2-(PYRIDIN-2-YL)ETHYL)THIO)BENZOATE HYDROCHLORIDE]		weak: umami, astringent, very weak: salty,		moderate umami,, weak: salty, astringent, very		moderate umami, weak: salty, astringent,	a sweet, full umami profile	MSG>3 ppm example 9>3 ppm Example 13>4 ppm Example 3>Blank retorted chicken broth>4 ppm Example 10	a boost in saltiness along with a strong, full umami taste profile	MSG>2 ppm example 9>3 ppm Example 10=4 ppm Example 13>Blank chicken broth>3 ppm Example 3	better mouthfeel, slight to moderate umami with an overall clean profile	10 ppm Example 3>10 ppm Example 9>MSG>10 ppm Example 13>blank>6 ppm Example 10
Oc1cccc(SCCc2ccccn2)c1 [Example 10, 3-((2-(PYRIDIN-2-YL)ETHYL)THIO)PHENOL]	green	very weak bitter		weak: umami, metallic, very weak: bitter,	vegetable		a green pepper aroma and was slightly bitter	MSG>3 ppm example 9>3 ppm Example 13>4 ppm Example 3>Blank retorted chicken broth>4 ppm Example 10	mid/late umami along with a slight bitterness and off notes	MSG>2 ppm example 9>3 ppm Example 10=4 ppm Example 13>Blank chicken broth>3 ppm Example 3	a nice salty, slight umami profile along with a slight offnote	10 ppm Example 3>10 ppm Example 9>MSG>10 ppm Example 13>blank>6 ppm Example 10
c1ccc(CSCCc2ccccn2)cc1 [Example 11, 2-(2-(BENZYLTHIO)ETHYL)PYRIDINE]	phenolic	weak umami, very weak astringent	Phenolic, spicy	weak umami, very weak astringent	Phenolic, spicy	moderate to strong umami, very weak bitter,						
Cc1cccc(SCCc2ccccn2)c1.Cl [Example 12, 2-(2-(M-TOLYLTHIO)ETHYL)PYRIDINE HYDROCHLORIDE]		weak: umami, astringent, very weak salty		moderate umami, weak: salty, astringent		moderate to strong umami, weak: salty,						
COc1ccc(SCCc2ccccn2)cc1.Cl [Example 13, 2-(2-((4-METHOXYPHENYL)THIO)ETHYL)PYRIDINE HYDROCHLORIDE]		Weak umami, very weak bitter, astringent		Moderate to strong umami, very weak: bitter,	pyrazine	Strong umami, very weak bitter	a slightly sweet/slightly bitter profile	MSG>3 ppm example 9>3 ppm Example 13>4 ppm Example 3>Blank retorted chicken broth>4 ppm Example 10	mid/late umami with some late onset bitterness	MSG>2 ppm example 9>3 ppm Example 10=4 ppm Example 13>Blank chicken broth>3 ppm Example 3	A good, salty, umami profile	10 ppm Example 3>10 ppm Example 9>MSG>10 ppm Example 13>blank>6 ppm Example 10
